One assay relates to SirT1. Briefly: Primary AlphaLISA screening assay: SirT1 levels in N2a cells stably transfected with ApoE4. The format is cell-based, mouse. The note with it: N2A neuroblastoma cells stably transfected with ApoE4. The protocol:
We have developed a primary screening assay that is HTS formatable; the assay would be done on N2a cells (mouse neuroblastoma cells) that have been stably transfected with ApoE3 and ApoE4. The cells are treated with drugs and the SirT1 levels are measured using the AlphaLISA assay that we have developed, e.g., as shown in FIG. 11. The illustrated AlphaLISA uses an antibody (Ab, E104, Abcam) that binds the C-terminus of SirT1 and is on the acceptor bead. The N-terminal Ab (D1D7, Abcam) is biotinylated and binds to the donor bead. For the primary assay the Neuro-2a (N2a) cells stably expressing similar levels of hApoE3 or hApoE4 are used. The primary assay can be done in triplicate. The N2a cells have reasonably good endogenous levels of APP thus avoiding the necessity of APP transfection. In general, for the assays N2a cells stably transfected with hApoE3 (E3) or hApoE4 (E4) are plated, e.g., at […] in 384-well plates in […] of growth medium and allowed to attached for 3 h. The E4 cells are treated with compounds overnight, E3 cells are controls. The following day, growth medium is removed and cells are lysed with AlphaLysis buffer complemented with protease and phosphatase inhibitors.
Then, the AlphaLISA assay is run and molecules that can increase or reverse the SirT1 levels in ApoE4 cells are identified. A preliminary estimate, based on the initial screening which yielded two reproducible “hits” from a set of 1000 compounds, which is a 0.2% hit-rate. […] Our initial screening was done on a small library of about 1000 compounds. The assay is translatable to a HTS format.
For the compound `Clc1cccc(Cl)c1N=C1NCCN1` [Compound A02, clonidine], the “SirT1 levels (dose-response)” value is reported as “flat”.

The assay is the same for the next values; noted with them: initial screen of about 1000 compounds.
Consider `CNCCC(Oc1ccc(C(F)(F)F)cc1)c1ccccc1` (centres unmarked) [Prozac], for which the “effect on SirT1 levels in initial screen” value is recorded as “no affect on SirT1 levels”.

Still in this assay, the particulars now being: primary screening assay, ApoE4 cells.
With “1-(3,4-difluorophenyl)-2-methylpropan-2-yl 2-aminoethanoate [Compound 21]”, the “Primary Assay (SrT1 increase)” value is on record as “II (activity II 10-30%)”. Regarding “1-(4-chlorophenyl)-2-methylpropan-2-yl pyrrolidine-2-carboxylate [Compound 20]”, the “Primary Assay (SrT1 increase)” value is recorded as “I (activity I < 10%)”. Same read-out and setting: the value for “2-amino-N-(1-(4-chlorophenyl)-2-methylpropan-2-yl)propanamide [Compound 15]” was “III (activity III > 30 SrT1 increase)”; that for `CC(N)C(=O)OC(C)(C)Cc1ccccc1` (centres unmarked) [Compound 1, 2-methyl-1-phenylpropan-2-yl 2-aminopropanoate] was “II (activity II 10-30%)”. On the same count and under the same terms, the same measure for `CC(C)(Cc1ccc(Cl)cc1)OC(=O)C(N)Cc1ccccc1` (centres unmarked) [Compound 2, 1-(4-chlorophenyl)-2-methylpropan-2-yl 2-amino-3-phenylpropanoate]: “I (activity I < 10%)”; for `CC(N)C(=O)OC(C)(C)Cc1ccc(F)c(F)c1` (centres unmarked) [Compound 3, 1-(3,4-difluorophenyl)-2-methylpropan-2-yl 2-aminopropanoate]: “III (activity III > 30 SrT1 increase)”. For `CC(N)C(=O)OC(C)(C)Cc1ccc(F)cc1` (centres unmarked) [Compound 4, 1-(4-fluorophenyl)-2-methylpropan-2-yl 2-aminopropanoate], the “Primary Assay (SrT1 increase)” value is “II (activity II 10-30%)”.

In the case of `CC(C)CC(N)C(=O)OC(C)(C)Cc1ccc(Cl)cc1` (centres unmarked) [Compound 5, 1-(4-chlorophenyl)-2-methylpropan-2-yl 2-amino-4-methylpentanoate], the “Primary Assay (SrT1 increase)” value is given as “I (activity I < 10%)”. On to `Cc1ccc(CC(C)(C)OC(=O)C(C)N)cc1` (centres unmarked) [Compound 6, 2-methyl-1-p-tolylpropan-2-yl 2-aminopropanoate], for which the “Primary Assay (SrT1 increase)” value is reported as “II (activity II 10-30%)”. On to `CC(C)(Cc1ccc(Cl)cc1)OC(=O)CN` [Compound 7, 1-(4-chlorophenyl)-2-methylpropan-2-yl 2-aminoethanoate], for which the “Primary Assay (SrT1 increase)” value was “II (activity II 10-30%)”. With `CC(C)C(N)C(=O)OC(C)(C)Cc1ccc(Cl)cc1` (centres unmarked) [Compound 8, 1-(4-chlorophenyl)-2-methylpropan-2-yl 2-amino-3-methylbutanoate], the “Primary Assay (SrT1 increase)” value is on record as “II (activity II 10-30%)”. Same read-out and setting: the value for `CC(N)C(=O)OC1(Cc2ccc(Cl)cc2)CCC1` (centres unmarked) [Compound 9, 1-(4-chlorobenzyl)cyclobutyl 2-aminopropanoate] was “I (activity I < 10%)”; that for `CC(N)C(=O)OC1(Cc2ccc(Cl)cc2)CCCCC1` (centres unmarked) [Compound 10, 1-(4-chlorobenzyl)cyclohexyl 2-aminopropanoate] was “I (activity I < 10%)”. The same measure, in the same setting: the value for `CCC(C)C(N)C(=O)OC(C)(C)Cc1ccc(Cl)cc1` (centres unmarked) [Compound 11, 1-(4-chlorophenyl)-2-methylpropan-2-yl 2-amino-3-methylpentanoate] was “II (activity II 10-30%)”; that for `CC(N)C(=O)OC(C)(C)CCc1ccc(Cl)cc1` (centres unmarked) [Compound 12, 4-(4-chlorophenyl)-2-methylbutan-2-yl 2-aminopropanoate] was “II (activity II 10-30%)”. In the case of `CC(C)(Cc1ccc(Cl)cc1)OC(=O)C(N)CCCCN` (centres unmarked) [Compound 13, 1-(4-chlorophenyl)-2-methylpropan-2-yl 2,6-diaminohexanoate], the “Primary Assay (SrT1 increase)” value is recorded as “II (activity II 10-30%)”. `CC(N)C(=O)OC(C)(C)Cc1cc(F)cc(F)c1` (centres unmarked) [Compound 14, 1-(3,5-difluorophenyl)-2-methylpropan-2-yl 2-aminopropanoate]: the “Primary Assay (SrT1 increase)” value was “III (activity III > 30 SrT1 increase)”. Still for that read-out and setting: the same measure for `CC(C)(Cc1ccc(Cl)cc1)OC(=O)C(N)CO` (centres unmarked) [Compound 16, 1-(4-chlorophenyl)-2-methylpropan-2-yl 2-amino-3-hydroxypropanoate]: “II (activity II 10-30%)”; for `CC(C)(Cc1ccc(Cl)cc1)OC(=O)CCN` [Compound 17, 1-(4-chlorophenyl)-2-methylpropan-2-yl 3-aminopropanoate]: “I (activity I < 10%)”; for `C[C@H](N)CC(=O)OC(C)(C)Cc1ccc(Cl)cc1` [Compound 18, (S)-1-(4-chlorophenyl)-2-methylpropan-2-yl 3-aminobutanoate]: “I (activity I < 10%)”.

`CC(C)(Cc1ccc(Cl)cc1)OC(=O)C1CCCCN1` (centres unmarked) [Compound 19, 1-(4-chlorophenyl)-2-methylpropan-2-yl piperidine-2-carboxylate]: the “Primary Assay (SrT1 increase)” value is recorded as “II (activity II 10-30%)”. For the compound `CC(N)C(=O)NC(C)(C)Cc1ccc(F)c(F)c1` (centres unmarked) [Compound 22, 2-amino-N-(1-(3,4-difluorophenyl)-2-methylpropan-2-yl)propanamide], the “Primary Assay (SrT1 increase)” value is on record as “III (activity III > 30 SrT1 increase)”. Still for that read-out and setting: the same measure for `CNC(C)C(=O)OC(C)(C)Cc1ccc(Cl)cc1` (centres unmarked) [Compound 23, 1-(4-chlorophenyl)-2-methylpropan-2-yl 2-(methylamino)propanoate]: “I (activity I < 10%)”. Consider `CC(C)(Cc1ccc(F)c(F)c1)NC(=O)C1CCCN1` (centres unmarked) [Compound 24, N-(1-(3,4-difluorophenyl)-2-methylpropan-2-yl)pyrrolidine-2-carboxamide], for which the “Primary Assay (SrT1 increase)” value was “II (activity II 10-30%)”.

(Values after patent publication US20170226059A1, “APOE4-TARGETED THERAPUTICS THAT INCREASE SIRT1” (The Regents of the University of California, priority 2014, published 2017).)
